Test results: article PMC7108927, “TYK2 inhibition reduces type 3 immunity and modifies disease progression in murine spondyloarthritis” (The Journal of Clinical Investigation, 2020)

What was measured:
Assay in all cases: radiometric kinase assay with peptide substrate
Format in all cases: biochemical
[1] = target: TYK2 (Homo sapiens, UniProt P29597)
[2] = target: JAK1 (Homo sapiens, UniProt P23458)
[3] = target: JAK2 (Homo sapiens, UniProt O60674)
[4] = target: T1, JAK3 (Homo sapiens, UniProt P52333)
T1 sequence (P52333 1-1124): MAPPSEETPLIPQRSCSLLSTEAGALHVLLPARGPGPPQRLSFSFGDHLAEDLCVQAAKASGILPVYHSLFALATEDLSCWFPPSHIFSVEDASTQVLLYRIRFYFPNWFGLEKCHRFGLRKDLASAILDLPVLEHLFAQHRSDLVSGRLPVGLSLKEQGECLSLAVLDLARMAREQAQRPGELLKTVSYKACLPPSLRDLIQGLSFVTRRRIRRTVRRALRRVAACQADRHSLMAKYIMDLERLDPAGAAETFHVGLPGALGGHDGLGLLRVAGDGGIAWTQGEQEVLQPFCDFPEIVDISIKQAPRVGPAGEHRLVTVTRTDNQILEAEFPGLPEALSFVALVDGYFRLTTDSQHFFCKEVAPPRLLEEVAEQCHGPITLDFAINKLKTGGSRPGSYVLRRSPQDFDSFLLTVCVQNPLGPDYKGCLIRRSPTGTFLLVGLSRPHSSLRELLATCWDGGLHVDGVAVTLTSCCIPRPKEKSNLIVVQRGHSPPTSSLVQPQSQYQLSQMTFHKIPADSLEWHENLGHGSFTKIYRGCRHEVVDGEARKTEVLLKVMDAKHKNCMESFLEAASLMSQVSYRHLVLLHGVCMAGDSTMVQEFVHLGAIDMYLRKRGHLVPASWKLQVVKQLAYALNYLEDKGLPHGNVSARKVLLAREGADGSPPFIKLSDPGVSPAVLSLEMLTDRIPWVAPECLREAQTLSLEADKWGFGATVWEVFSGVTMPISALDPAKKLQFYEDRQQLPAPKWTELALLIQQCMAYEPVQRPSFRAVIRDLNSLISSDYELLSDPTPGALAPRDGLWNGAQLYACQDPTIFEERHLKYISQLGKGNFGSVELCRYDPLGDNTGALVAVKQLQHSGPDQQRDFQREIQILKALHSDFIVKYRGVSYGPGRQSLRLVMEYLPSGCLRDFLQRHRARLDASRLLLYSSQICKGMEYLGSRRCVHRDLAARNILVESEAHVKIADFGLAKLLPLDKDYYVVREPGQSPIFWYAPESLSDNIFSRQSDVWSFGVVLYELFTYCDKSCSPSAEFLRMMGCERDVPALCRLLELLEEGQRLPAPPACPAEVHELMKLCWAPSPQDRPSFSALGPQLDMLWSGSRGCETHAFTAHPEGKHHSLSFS

Sequence of JAK1 (P23458 whole entry): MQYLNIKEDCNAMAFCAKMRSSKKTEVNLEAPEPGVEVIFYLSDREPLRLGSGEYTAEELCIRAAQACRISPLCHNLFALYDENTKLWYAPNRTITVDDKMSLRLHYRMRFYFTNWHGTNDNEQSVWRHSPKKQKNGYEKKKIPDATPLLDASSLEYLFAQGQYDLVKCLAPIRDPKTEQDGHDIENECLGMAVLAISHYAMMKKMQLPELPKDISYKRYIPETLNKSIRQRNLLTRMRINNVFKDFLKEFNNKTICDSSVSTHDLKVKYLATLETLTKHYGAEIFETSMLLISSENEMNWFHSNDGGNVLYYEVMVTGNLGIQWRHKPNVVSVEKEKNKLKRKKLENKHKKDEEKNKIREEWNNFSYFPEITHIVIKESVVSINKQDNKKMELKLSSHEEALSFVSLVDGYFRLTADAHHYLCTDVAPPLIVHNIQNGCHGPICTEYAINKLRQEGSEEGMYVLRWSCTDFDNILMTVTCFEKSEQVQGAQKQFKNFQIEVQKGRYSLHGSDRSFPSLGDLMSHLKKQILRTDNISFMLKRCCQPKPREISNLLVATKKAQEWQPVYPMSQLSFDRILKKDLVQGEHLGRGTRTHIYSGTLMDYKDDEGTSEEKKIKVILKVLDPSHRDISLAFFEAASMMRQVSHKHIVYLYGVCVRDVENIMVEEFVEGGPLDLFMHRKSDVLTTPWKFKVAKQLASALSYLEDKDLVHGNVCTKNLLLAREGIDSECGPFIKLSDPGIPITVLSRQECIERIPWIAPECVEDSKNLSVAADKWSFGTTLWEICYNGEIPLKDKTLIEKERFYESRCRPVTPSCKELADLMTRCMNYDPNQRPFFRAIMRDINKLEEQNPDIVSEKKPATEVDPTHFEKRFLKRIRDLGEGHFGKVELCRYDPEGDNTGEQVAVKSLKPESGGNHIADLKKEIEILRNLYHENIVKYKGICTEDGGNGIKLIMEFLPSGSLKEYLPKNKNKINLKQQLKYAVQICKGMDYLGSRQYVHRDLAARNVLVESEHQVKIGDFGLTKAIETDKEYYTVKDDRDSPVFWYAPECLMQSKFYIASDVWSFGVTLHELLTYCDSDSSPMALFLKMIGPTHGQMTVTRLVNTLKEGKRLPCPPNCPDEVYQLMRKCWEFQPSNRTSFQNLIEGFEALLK
Sequence of TYK2 (P29597 whole entry): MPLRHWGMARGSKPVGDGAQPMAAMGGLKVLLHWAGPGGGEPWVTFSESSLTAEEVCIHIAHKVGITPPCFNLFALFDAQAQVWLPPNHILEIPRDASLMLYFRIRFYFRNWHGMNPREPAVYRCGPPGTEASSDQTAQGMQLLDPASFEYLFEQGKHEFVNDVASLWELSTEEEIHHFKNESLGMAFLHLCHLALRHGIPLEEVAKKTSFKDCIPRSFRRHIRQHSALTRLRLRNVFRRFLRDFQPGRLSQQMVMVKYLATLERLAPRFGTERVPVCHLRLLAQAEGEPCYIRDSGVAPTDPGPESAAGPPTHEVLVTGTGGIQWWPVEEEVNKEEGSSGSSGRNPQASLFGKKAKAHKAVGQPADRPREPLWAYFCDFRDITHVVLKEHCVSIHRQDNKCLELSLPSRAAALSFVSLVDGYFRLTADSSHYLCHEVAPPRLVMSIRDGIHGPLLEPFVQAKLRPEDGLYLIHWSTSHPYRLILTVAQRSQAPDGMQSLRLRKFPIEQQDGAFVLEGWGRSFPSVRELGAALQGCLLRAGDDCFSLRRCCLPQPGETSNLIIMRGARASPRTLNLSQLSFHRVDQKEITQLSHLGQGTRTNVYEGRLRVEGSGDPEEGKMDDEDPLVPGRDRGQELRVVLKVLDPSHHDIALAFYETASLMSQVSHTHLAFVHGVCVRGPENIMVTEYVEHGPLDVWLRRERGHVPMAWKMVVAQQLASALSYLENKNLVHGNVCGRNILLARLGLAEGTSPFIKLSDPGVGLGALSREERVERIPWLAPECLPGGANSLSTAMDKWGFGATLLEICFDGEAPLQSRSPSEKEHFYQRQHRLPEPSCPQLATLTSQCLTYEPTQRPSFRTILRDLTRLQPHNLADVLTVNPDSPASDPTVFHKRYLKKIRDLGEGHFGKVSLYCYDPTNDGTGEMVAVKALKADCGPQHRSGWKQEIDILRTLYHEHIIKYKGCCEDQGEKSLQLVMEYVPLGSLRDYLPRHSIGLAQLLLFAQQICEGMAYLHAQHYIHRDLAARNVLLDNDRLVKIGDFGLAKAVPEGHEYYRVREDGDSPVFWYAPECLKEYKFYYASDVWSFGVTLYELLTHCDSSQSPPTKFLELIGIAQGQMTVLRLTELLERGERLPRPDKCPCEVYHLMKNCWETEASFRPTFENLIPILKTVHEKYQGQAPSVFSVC
Sequence of JAK2 (O60674 whole entry): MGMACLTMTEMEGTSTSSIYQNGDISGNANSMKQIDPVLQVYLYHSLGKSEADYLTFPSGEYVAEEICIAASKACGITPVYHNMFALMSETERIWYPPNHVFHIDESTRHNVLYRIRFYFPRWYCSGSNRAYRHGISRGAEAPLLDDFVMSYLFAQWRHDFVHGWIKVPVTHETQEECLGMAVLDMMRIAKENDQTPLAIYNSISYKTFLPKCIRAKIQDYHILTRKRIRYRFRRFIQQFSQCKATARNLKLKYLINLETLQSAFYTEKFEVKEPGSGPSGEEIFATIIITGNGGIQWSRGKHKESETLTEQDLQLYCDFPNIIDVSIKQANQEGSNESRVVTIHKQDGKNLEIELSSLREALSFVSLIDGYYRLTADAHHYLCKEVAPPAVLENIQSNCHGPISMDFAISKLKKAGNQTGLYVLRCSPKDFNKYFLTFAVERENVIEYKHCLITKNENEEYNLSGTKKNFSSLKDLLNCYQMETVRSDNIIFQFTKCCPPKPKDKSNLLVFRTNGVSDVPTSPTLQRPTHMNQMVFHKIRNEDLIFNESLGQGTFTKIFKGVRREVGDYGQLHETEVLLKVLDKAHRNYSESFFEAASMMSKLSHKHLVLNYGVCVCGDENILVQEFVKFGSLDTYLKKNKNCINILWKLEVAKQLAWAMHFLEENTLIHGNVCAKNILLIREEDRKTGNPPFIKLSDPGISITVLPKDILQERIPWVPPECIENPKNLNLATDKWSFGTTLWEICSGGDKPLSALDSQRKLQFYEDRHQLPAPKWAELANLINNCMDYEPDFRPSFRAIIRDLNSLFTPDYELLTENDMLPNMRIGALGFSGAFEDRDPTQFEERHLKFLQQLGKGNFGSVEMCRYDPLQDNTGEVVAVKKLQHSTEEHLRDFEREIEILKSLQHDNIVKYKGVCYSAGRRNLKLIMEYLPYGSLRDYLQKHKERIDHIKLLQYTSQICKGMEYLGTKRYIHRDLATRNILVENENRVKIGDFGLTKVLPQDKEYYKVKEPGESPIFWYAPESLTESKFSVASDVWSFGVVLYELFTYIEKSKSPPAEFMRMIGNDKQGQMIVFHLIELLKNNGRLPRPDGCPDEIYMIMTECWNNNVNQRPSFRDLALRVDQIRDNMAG

- IC50 [1]: 0.21 nM
- IC50 [2]: 46 nM
- IC50 [3]: 31 nM
- IC50 [4]: 4.2 nM
Substance: NDI-031407
